Source: patent publication US20070281992A1, “COMBINATION OF GYRASE B INHIBITORS AND PROTEIN SYNTHESIS INHIBITORS AND USES THEREOF” (priority 2006, published 2007)
Where two headings read alike, the source gives them in different places.

Tests used:
Assay type in all cases: cell-based
[1] = tested on: Methicillin-Susceptible Staphylococcus aureus Isolates; assay: MIC assay (NCCLS broth dilution), MSSA clinical isolates; conditions: for MIC: Staphylococcus aureus
Protocol: (§1) Antibiotics: novobiocin, tetracycline, minocycline, oxacillin, and vancomycin were all purchased from Sigma-Aldrich. Linezolid was obtained from Pfizer, Inc. Novobiocin/tetracycline and novobiocin/minocycline were tested in a 2.5:1 ratio to mimic the serum levels. (Vavra, J. J., 1967, Development of resistance to novobiocin, tetracycline, and novobiocin-tetracycline combinations in Staphylococcus aureus populations, J. Bacteriol 93(3):801). Compounds were tested across a concentration range consisting of 11 two-fold serial dilutions of test agent.
(§2) Stock solutions were prepared in sterile deionized water; novobiocin stock concentration was 1600 μg/mL and all other drugs stock solutions were prepared at 640 μg/mL. The stock solutions were allowed to sit at room temperature for one hour to auto-sterilize prior to use in the test. All compounds were in solution in water. The control agent was vancomycin hydrochloride, Sigma Chemical Lot # 015K0825.
(§3) The test organisms for the assay were 52 MSSA, 52 MRSA, 8 VISA, 7 VISE, and 3 LRSA isolates. Quality control strains included Staphylococcus aureus 0100 (ATCC 29213) and Enterococcus faecalis (ATCC 29212).
(§4) The MIC assay was performed according to published NCCLS guidelines. (National Committee for Clinical Laboratory Standards, Methods for Dilution Antimicrobial Susceptibility Tests for Bacteria that Grow Aerobically; Approved Standard-Sixth Edition, NCCLS Document M7-A6 [ISBN 1-56238-486-4], NCCLS, 940 West Valley Road, Suite 1400, Wayne, Pa. 19087-1898 USA, 2003). The test medium was Mueller Hinton II Broth for all organisms.

[2] = tested on: Vancomycin-intermediate Staphylococcus aureus Isolates; assay: MIC assay (NCCLS broth dilution), VISA isolates
Protocol: as §1, §2, §3, §4

[3] = tested on: Unconfirmed Vancomycin-intermediate Staphylococcus aureus Isolates; assay: MIC assay (NCCLS broth dilution), unconfirmed VISA isolates
Protocol: as §1, §2, §3, §4

[4] = tested on: Unconfirmed Vancomycin-intermediate Staphylococcus epidermidis Isolates; assay: MIC assay (NCCLS broth dilution), unconfirmed VISE isolates; conditions: for MIC: Staphylococcus epidermidis
Protocol: as §1, §2, §3, §4

[5] = tested on: Linezolid-Resistant Staphylococcus aureus Isolates; assay: MIC assay (NCCLS broth dilution), LRSA isolates; conditions: for MIC: Staphylococcus aureus
Protocol: as §1, §2, §3, §4

[6] = tested on: Enterococcus faecalis (ATCC 29212); assay: MIC assay, quality control strain E. faecalis ATCC 29212; conditions: ATCC29212, read-out: Minimal Inhibitory Concentration, quality control, E. faecalis ATCC 29212, repeat runs 22FEB06-09MAR06, combinations at 2.5:1
Protocol: as §1, §2, §3, §4

[7] = Staphylococcus aureus, read-out: Minimal Inhibitory Concentration

CN[C@H](CC(C)C)C(=O)N[C@H]1C(=O)N[C@@H](CC(N)=O)C(=O)N[C@H]2C(=O)N[C@H]3C(=O)N[C@H](C(=O)N[C@H](C(=O)O)c4cc(O)cc(O)c4-c4cc3ccc4O)[C@H](O)c3ccc(c(Cl)c3)Oc3cc2cc(c3O[C@@H]2O[C@H](CO)[C@@H](O)[C@H](O)[C@H]2O[C@H]2C[C@](C)(N)[C@H](O)[C@H](C)O2)Oc2ccc(cc2Cl)[C@H]1O [VA, vancomycin]
MIC Range ([1]; 52 MSSA isolates, Mueller Hinton II Broth, combinations at 2.5:1, given as NB/partner): .5 to 1 µg/mL
MIC ([1]; read-out: Minimal Inhibitory Concentration, MSSA isolate 133, 03MAR06): 0.5 µg/mL
MIC ([1]; read-out: Minimal Inhibitory Concentration, MSSA isolate 134, 03MAR06): 0.5 µg/mL
MIC ([1]; read-out: Minimal Inhibitory Concentration, MSSA isolate 135, 03MAR06): 1 µg/mL
MIC ([1]; read-out: Minimal Inhibitory Concentration, MSSA isolate 753, 22FEB06): 0.5 µg/mL
MIC ([1]; read-out: Minimal Inhibitory Concentration, MSSA isolate 754, 22FEB06): 0.5 µg/mL
MIC ([1]; read-out: Minimal Inhibitory Concentration, MSSA isolate 754, 24FEB06): 0.5 µg/mL
MIC ([1]; read-out: Minimal Inhibitory Concentration, MSSA isolate 755, 22FEB06): 1 µg/mL
MIC ([1]; read-out: Minimal Inhibitory Concentration, MSSA isolate 756, 03MAR06): 0.5 µg/mL
MIC ([1]; read-out: Minimal Inhibitory Concentration, MSSA isolate 779, 22FEB06): 0.5 µg/mL
MIC ([1]; read-out: Minimal Inhibitory Concentration, MSSA isolate 780, 03MAR06): 1 µg/mL
MIC ([1]; read-out: Minimal Inhibitory Concentration, MSSA isolate 781, 03MAR06): 0.5 µg/mL
MIC ([1]; read-out: Minimal Inhibitory Concentration, MSSA isolate 782, 22FEB06): 1 µg/mL
MIC ([1]; read-out: Minimal Inhibitory Concentration, MSSA isolate 783, 22FEB06): 1 µg/mL
MIC ([1]; read-out: Minimal Inhibitory Concentration, MSSA isolate 784, 22FEB06): 0.5 µg/mL
MIC ([1]; read-out: Minimal Inhibitory Concentration, MSSA isolate 785, 22FEB06): 0.5 µg/mL
MIC ([1]; read-out: Minimal Inhibitory Concentration, MSSA isolate 786, 22FEB06): 0.5 µg/mL
MIC ([1]; read-out: Minimal Inhibitory Concentration, MSSA isolate 787, 22FEB06): 0.5 µg/mL
MIC ([1]; read-out: Minimal Inhibitory Concentration, MSSA isolate 788, 22FEB06): 0.5 µg/mL
MIC ([1]; read-out: Minimal Inhibitory Concentration, MSSA isolate 789, 24FEB06): 1 µg/mL
MIC ([1]; read-out: Minimal Inhibitory Concentration, MSSA isolate 790, 24FEB06): 0.5 µg/mL
MIC ([1]; read-out: Minimal Inhibitory Concentration, MSSA isolate 791, 24FEB06): 0.5 µg/mL
MIC ([1]; read-out: Minimal Inhibitory Concentration, MSSA isolate 792, 03MAR06): 0.5 µg/mL
MIC ([1]; read-out: Minimal Inhibitory Concentration, MSSA isolate 793, 24FEB06): 0.5 µg/mL
MIC ([1]; read-out: Minimal Inhibitory Concentration, MSSA isolate 794, 24FEB06): 1 µg/mL
MIC ([1]; read-out: Minimal Inhibitory Concentration, MSSA isolate 994, 22FEB06): 1 µg/mL
MIC ([1]; read-out: Minimal Inhibitory Concentration, MSSA isolate 995, 03MAR06): 1 µg/mL
MIC ([1]; read-out: Minimal Inhibitory Concentration, MSSA isolate 996, 22FEB06): 0.5 µg/mL
MIC ([1]; read-out: Minimal Inhibitory Concentration, MSSA isolate 997, 22FEB06): 1 µg/mL
MIC ([1]; read-out: Minimal Inhibitory Concentration, MSSA isolate 998, 03MAR06): 1 µg/mL
MIC ([1]; read-out: Minimal Inhibitory Concentration, MSSA isolate 999, 22FEB06): 0.5 µg/mL
MIC ([1]; read-out: Minimal Inhibitory Concentration, MSSA isolate 1000, 24FEB06): 1 µg/mL
MIC ([1]; read-out: Minimal Inhibitory Concentration, MSSA isolate 1001, 24FEB06): 1 µg/mL
MIC ([1]; read-out: Minimal Inhibitory Concentration, MSSA isolate 1002, 24FEB06): 0.5 µg/mL
MIC ([1]; read-out: Minimal Inhibitory Concentration, MSSA isolate 1003, 03MAR06): 0.5 µg/mL
MIC ([1]; read-out: Minimal Inhibitory Concentration, MSSA isolate 1005, 24FEB06): 1 µg/mL
MIC ([1]; read-out: Minimal Inhibitory Concentration, MSSA isolate 1006, 24FEB06): 1 µg/mL
MIC ([1]; read-out: Minimal Inhibitory Concentration, MSSA isolate 1007, 24FEB06): 1 µg/mL
MIC ([1]; read-out: Minimal Inhibitory Concentration, MSSA isolate 1008, 24FEB06): 0.5 µg/mL
MIC ([1]; read-out: Minimal Inhibitory Concentration, MSSA isolate 1009, 24FEB06): 0.5 µg/mL
MIC ([1]; read-out: Minimal Inhibitory Concentration, MSSA isolate 1131, 24FEB06): 1 µg/mL
MIC ([1]; read-out: Minimal Inhibitory Concentration, MSSA isolate 1132, 03MAR06): 0.5 µg/mL
MIC ([1]; read-out: Minimal Inhibitory Concentration, MSSA isolate 1133, 24FEB06): 0.5 µg/mL
MIC ([1]; read-out: Minimal Inhibitory Concentration, MSSA isolate 1134, 24FEB06): 0.5 µg/mL
MIC ([1]; read-out: Minimal Inhibitory Concentration, MSSA isolate 1654, 03MAR06): 0.5 µg/mL
MIC ([1]; read-out: Minimal Inhibitory Concentration, MSSA isolate 1656, 03MAR06): 0.5 µg/mL
MIC ([1]; read-out: Minimal Inhibitory Concentration, MSSA isolate 1662, 03MAR06): 0.5 µg/mL
MIC ([1]; read-out: Minimal Inhibitory Concentration, MSSA isolate 1663, 03MAR06): 1 µg/mL
MIC ([1]; read-out: Minimal Inhibitory Concentration, MSSA isolate 1666, 03MAR06): 0.5 µg/mL
MIC ([1]; read-out: Minimal Inhibitory Concentration, MSSA isolate 1667, 03MAR06): 1 µg/mL
MIC ([1]; read-out: Minimal Inhibitory Concentration, MSSA isolate 1668, 03MAR06): 0.5 µg/mL
MIC ([1]; read-out: Minimal Inhibitory Concentration, MSSA isolate 1671, 03MAR06): 1 µg/mL
MIC ([1]; read-out: Minimal Inhibitory Concentration, MSSA isolate 1728, 03MAR06): 1 µg/mL
MIC ([1]; read-out: Minimal Inhibitory Concentration, MSSA isolate 1728, retest 09MAR06): 1 µg/mL
MIC Range ([2]; 2 VISA isolates, combinations at 2.5:1, given as NB/partner): 8 µg/mL
MIC [2, 7]: 8 µg/mL
Minimal Inhibitory Concentration ([2]; VISA isolate 2018, 03MAR06): 8 µg/mL
MIC Range ([3]; 6 unconfirmed VISA isolates (vancomycin MIC 4 ug/ml), combinations at 2.5:1): 4 µg/mL
MIC [3, 7]: 4 µg/mL
Minimal Inhibitory Concentration ([3]; Unconfirmed VISA isolate 2014, 03MAR06): 4 µg/mL
Minimal Inhibitory Concentration ([3]; Unconfirmed VISA isolate 2015, 03MAR06): 4 µg/mL
Minimal Inhibitory Concentration ([3]; Unconfirmed VISA isolate 2016, 03MAR06): 4 µg/mL
Minimal Inhibitory Concentration ([3]; Unconfirmed VISA isolate 2017, 03MAR06): 4 µg/mL
Minimal Inhibitory Concentration ([3]; Unconfirmed VISA isolate 2019, 03MAR06): 4 µg/mL
MIC Range ([4]; 3 unconfirmed VISE isolates, combinations at 2.5:1): 1 to 4 µg/mL
MIC ([4]; read-out: Minimal Inhibitory Concentration, Unconfirmed VISE isolate 2024, 09MAR06): 2 µg/mL
MIC ([4]; read-out: Minimal Inhibitory Concentration, Unconfirmed VISE isolate 2025, 09MAR06): 4 µg/mL
MIC ([4]; read-out: Minimal Inhibitory Concentration, Unconfirmed VISE isolate 2026, 03MAR06): 4 µg/mL
MIC Range ([5]; 3 LRSA isolates, combinations at 2.5:1): 0.5 to 1 µg/mL
MIC ([5]; read-out: Minimal Inhibitory Concentration, LRSA isolate 1651, 24FEB06): 0.5 µg/mL
MIC ([5]; read-out: Minimal Inhibitory Concentration, LRSA isolate 1652, 24FEB06): 1 µg/mL
MIC ([5]; read-out: Minimal Inhibitory Concentration, LRSA isolate 1725, 24FEB06): 1 µg/mL
MIC [6]: 2 µg/mL
